# Measurements from publication PMC9820345, “Metal Complexes of a 5-Nitro-8-Hydroxyquinoline-Proline Hybrid with Enhanced Water Solubility Targeting Multidrug Resistant Cancer Cells” (International Journal of Molecular Sciences, 2022).
# Experiments:
# [1] = Stability of the complexes in blood serum (UV-vis); type: in vitro ADME, human; details: blood serum four-time diluted with PBS'; after 24 h
# Description: The stability of the RhCp* and RuCym complexes of HQNO2-L-Pro was also monitored in Roswell Park Memorial Institute (RPMI) medium used for the in vitro cell studies (in the case of Colo cells), and in blood serum using UV-vis and ^1H NMR spectroscopy. […] Despite these changes, the dissociation of the complexes is not likely as the liberation of the unbound ligand was not observed; thus, the complexes most probably form ternary complexes with the components of the serum or the medium. In order to further study the reactivity of these complexes with bioligands, their interaction with human serum albumin (HSA) and selected oligopeptides (also used as binding models of HSA) was assayed.
# Stock and sample solutions were prepared using Milli-Q water. […] Their concentrations were determined by complexometry via the EDTA complexes. […] The concentration of the Fe(II) stock solution was determined by permanganometric titrations under acidic conditions. […] Residual citrate content of HSA was removed by repeated ultrafiltration of the protein stock solution, and its concentration was calculated from its UV absorption: λ280nm (HSA) = 36,850 M^−1 cm^−1 [51]. […]
# Ac-Phe-His-Ala-NH2 (FHA) = assay: Mixed-ligand adduct formation with His-containing oligopeptide FHA; type: binding
# Procedure: According to numerous papers on the binding of half-sandwich organometallic complexes to HSA [35, 36], surface exposed histidine (His) side chains are the most feasible coordinating moieties. […] The equilibrium could be reached within 3–10 min in the case of the RhCp* complex on the basis of the UV-vis spectral changes (Figure S28), and similar conditional constants (logK’) were computed with these model compounds for the formation of mixed-ligand RhCp* complexes; namely logK’ 5.00 ± 0.1, 4.4 ± 0.1, 5.1 ± 0.1 were obtained in the case of FHA, AHA, and mim, respectively. […] In the case of the oligopeptides, formation of isomers was detected which might be explained by the existence of two chiral centers, namely the metal ion and His-CHα. The adduct formation of the RuCym complex with mim was quantitative, hindering the determination of the logK’ value (meaning logK’ > 5.5). […]
# An Agilent Cary 8454 diode array spectrophotometer (Santa Clara, CA, USA) was used to obtain UV-vis spectra in the wavelength range 200–1000 nm, while spectra were recorded for the Fe(II)-containing samples using an Avantes (Avantes B.V., Apeldoorn, The Nederlands) AvaSpec-ULS2048CL-EVO spectrometer with an AvaLight-DHc light source and FDP-7UVIR200-2-VAR transmission dip probe. […]
SMILES,changes of the charge-transfer bands (400–500 nm) on incubation in serum [1],"conditional constant logK' of mixed-ligand complex (Ac-Phe-His-Ala-NH2 (FHA); pH 7.4, UV-vis)","conditional constant logK' of adduct (Ac-Phe-His-Ala-NH2 (FHA); pH 7.4, 1H NMR peak integrals, 24 h incubation)"
"CC1=C(C)[C](C)([Rh]([Cl])[O]c2c(C[NH+]3CCC[C@H]3C(=O)O)cc([N+](=O)[O-])c3cccnc23)C(C)=C1C.[Cl-] [RhCp*-HQNO2-L-Pro, [RhCp*(HQNO2-L-Pro)Cl]Cl]",minor changes,5.00 ± 0.1,–
"Cc1ccc(C(C)C)cc1.O=C(O)[C@@H]1CCC[NH+]1Cc1cc([N+](=O)[O-])c2ccc[n+]3c2c1[O][Ru-]3[Cl].[Cl-] [RuCym-HQNO2-L-Pro, [RuCym(HQNO2-L-Pro)Cl]Cl]",minor changes,–,3.9 ± 0.2
